# Read-outs that look alike come from different tables or passages of the source.
# Columns and labels:
# human CB1 receptor [1] = molecular target: T1, human CB1 receptor (Homo sapiens, UniProt P21554); assay: Human CB1 receptor binding, [3H] CP-55,940 displacement on HEK cell membranes; parameters: expressed in transfected cells; host or cells: HEK cells, doxycycline-induced; membrane preparation
# How it was run: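 Membranes from doxycycline-induced HEK cells expressing human CB1 incubated 60 min at room temperature with [3H] CP-55,940 (final […]) in 50 mM Tris pH 7.4, 100 mM NaCl, 3 mM MgCl2, 0.2 mM EGTA, 0.04% BSA. Nonspecific binding defined with 50 μM WIN-55,212-2; filtration and scintillation counting gave EC50 and Ki.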
# human CB1 receptor [2] = molecular target: T1, human CB1 receptor; assay: [35S] GTPγS binding on membranes of CHO cells expressing the human CB1 receptor (agonism); format: biochemical; parameters: expressed in transfected cells; membrane preparation
# Description: Membrane preparation: CHO cells expressing the human CB1 receptor were grown to 80% confluence in Ham's F-12 Nutrient Medium (Invitrogen) containing 10% fetal bovine serum (Invitrogen), 1% pen/strep (Invitogen), 1% Nonessential amino acids (Invitrogen) and 500 μg/ml G418 (Invitrogen). Cells were released from flasks using Cell Dissociation Buffer (Invitrogen). Cells were pelleted by centrifugation at 500×G for 5 minutes. Membranes were prepared by resuspending cells in ice cold Assay Buffer (25 mM Tris pH 7.4, 5 mM EDTA, 5 mM EGTA, Complete Protease Inhibitor (Roche)). Cells were lysed with 12 strokes of a dounce homogenizer. Unlysed cells were pelleted by centrifugation at 500×G for 5 minutes. Membranes were pelleted by centrifugation at 25,000×G for 30 minutes. Membranes were resuspended in TEE, dounced 12 strokes, and pelleted a second time at 25,000×G for 30 minutes. Membrane pellet was resuspended in 50 mM Tris pH 7.4, 100 mM NaCl, 3 mM MgCl2, 0.2 mM EGTA, Complete Protease Inhibitor (Roche). Protein concentration was determined using the Micro-BCA Protein Assay Kit (Pierce) using BSA as a standard. Membranes were frozen and stored at −80 degrees Celsius until use.
# GTPγS Binding: 40 μl of test compound was incubated with 20 μl of [^35S] GTPγS (Perkin Elmer) (1250 Ci/millimole) and 140 μl of membrane homogenate (5 μg/well) in polypropylene 96-well plates (Corning). Final reaction conditions were 50 mM Tris pH 7.4, 100 mM NaCl, 3 mM MgCl2, 0.2 mM EGTA, 0.04% BSA. After incubation at 37 degrees Celsius for 45 minutes reactions were harvested by vacuum filtration through Unifilter GF/B-96 filters (Perkin Elmer) using a FilterMate Plate Harvester (Perkin Elmer). Filters were rinsed 4 times with ice cold 50 mM Tris pH 7.4, 3 mM MgCl2, 0.2 mM EGTA and dried at 50 degrees Celsius for at least 30 minutes. 40 μl of Microscint-20 (Perkin Elmer) was added per well, and plates were counted using a Top-Count Microplate Scintillation Counter (Perkin Elmer). Binding data were analyzed and EC50 values were calculated using Graph Pad Prism 4.0 Software.
# [3] = GTPγS EC50, human CB1, CHO cell membranes
# [4] = human CB1, CHO cell membranes, read-out: GTPγS EC50
# T1 sequence (P21554 whole entry): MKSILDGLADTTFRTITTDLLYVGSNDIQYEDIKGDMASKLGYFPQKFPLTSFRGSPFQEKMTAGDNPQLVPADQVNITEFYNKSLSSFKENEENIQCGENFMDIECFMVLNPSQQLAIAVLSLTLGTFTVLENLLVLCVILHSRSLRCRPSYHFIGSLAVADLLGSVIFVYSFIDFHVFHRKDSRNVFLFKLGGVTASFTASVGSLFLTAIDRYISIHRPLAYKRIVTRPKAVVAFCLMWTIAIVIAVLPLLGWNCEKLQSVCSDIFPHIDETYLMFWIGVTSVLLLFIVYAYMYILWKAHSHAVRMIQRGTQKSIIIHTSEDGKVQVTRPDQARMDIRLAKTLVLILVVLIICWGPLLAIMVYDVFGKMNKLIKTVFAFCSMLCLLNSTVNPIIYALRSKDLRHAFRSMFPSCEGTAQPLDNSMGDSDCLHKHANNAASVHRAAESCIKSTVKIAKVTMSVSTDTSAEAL
SMILES,Ki (human CB1 receptor [1]; CB1 Ki),EC50 (human CB1 receptor [2]; [3]),Ki (human CB1 receptor [1]; read-out: CB1 Ki),EC50 (human CB1 receptor [2]; [4])
"CC(C)(C)[C@H](NC(=O)c1nn(Cc2ccc(F)cc2)c2ccccc12)C(N)=O [Example 1, N-[(1S)-1-(Aminocarbonyl)-2,2-dimethylpropyl]-1-(4-fluorobenzyl)-1H-indazole-3-carboxamide]",0.36 nM,0.98 nM,,
"CC(C)[C@H](NC(=O)c1nn(Cc2ccc(F)cc2)c2ccccc12)C(N)=O [Example 2, N-[(1S)-1-(aminocarbonyl)-2-methylpropyl]-1-(4-fluorobenzyl)-1H-indazole-3-carboxamide]",0.9 nM,23.2 nM,,
"NC(=O)[C@@H](NC(=O)c1nn(Cc2ccc(F)cc2)c2ccccc12)c1ccccc1 [Example 3, N-[(1S)-2-amino-2-oxo-1-phenylethyl]-1-(4-fluorobenzyl)-1H-indazole-3-carboxamide]",49.9 nM,298 nM,,
"CC(C)(C)[C@H](NC(=O)c1nn(Cc2ccccn2)c2ccccc12)C(N)=O [Example 6, N-[(1S)-1-(aminocarbonyl)-2,2-dimethylpropyl]-1-(pyridin-2-ylmethyl)-1H-indazole-3-carboxamide]",12.6 nM,160 nM,,
"CC(C)(C)[C@H](NC(=O)c1nn(Cc2ccccc2)c2ccc(Br)cc12)C(N)=O [Example 7, N-[(1S)-1-(aminocarbonyl)-2,2-dimethylpropyl]-1-benzyl-5-bromo-1H-indazole-3-carboxamide]",2.04 nM,12.9 nM,,
"CC(C)(C)[C@H](NC(=O)c1nn(Cc2ccccc2)c2ccc(-c3cccnc3)cc12)C(N)=O [Example 8, N-[(1S)-1-(Aminocarbonyl)-2,2-dimethylpropyl]-1-benzyl-5-pyridin-3-yl-1H-indazole-3-carboxamide]",,,118 nM,209 nM
"CC(C)(C)[C@H](NC(=O)c1nn(Cc2ccc(C#N)cc2)c2c(F)cccc12)C(=O)NCCO [Example 10, 1-(4-cyanobenzyl)-7-fluoro-N-[(1S)-1-{[(2-hydroxyethyl)amino]carbonyl}-2,2-dimethylpropyl]-1H-indazole-3-carboxamide]",1.91 nM,37.5 nM,,
"CC(C)(C)[C@H](NC(=O)c1nn(Cc2ccc(F)cc2)c2ccccc12)C(=O)NCc1nnc(C(N)=O)o1 [Example 11, N-{(1S)-1-[({[5-(aminocarbonyl)-1,3,4-oxadiazol-2-yl]methyl}amino)carbonyl]-2,2-dimethylpropyl}-1-(4-fluorobenzyl)-1H-indazole-3-carboxamide]",,,0.29 nM,0.55 nM
"CC(C)(C)[C@H](NC(=O)c1nn(Cc2ccccc2)c2ncccc12)C(N)=O [Example 12, N-[(1S)-1-(aminocarbonyl)-2,2-dimethylpropyl]-1-benzyl-1H-pyrazolo[3,4-b]pyridine-3-carboxamide]",11.5 nM,302 nM,,
CC(C)(C)[C@H](NC(=O)c1nn(Cc2ccccc2F)c2ccccc12)C(N)=O [Example 13],0.73 nM,11.9 nM,,
CC(C)C(NC(=O)c1nn(Cc2ccccc2F)c2ccccc12)C(N)=O (centres unmarked) [Example 17],4.69 nM,149 nM,,
CC(C)(C)C(NC(=O)c1nn(Cc2cccc(F)c2)c2ccccc12)C(N)=O (centres unmarked) [Example 19],2.57 nM,20.5 nM,,
CC(C)C(NC(=O)c1nn(Cc2cccc(F)c2)c2ccccc12)C(N)=O (centres unmarked) [Example 20],51.1 nM,216 nM,,
CC(C)(C)C(NC(=O)c1nn(Cc2ccccc2)c2ccccc12)C(N)=O (centres unmarked) [Example 27],0.33 nM,14.7 nM,,
CC(C)(C)C(NC(=O)c1nn(Cc2ccc(C#N)cc2)c2ccccc12)C(N)=O (centres unmarked) [Example 28],2.05 nM,121 nM,,
CC(C)(C)C(NC(=O)c1nn(Cc2ccccc2C#N)c2ccccc12)C(N)=O (centres unmarked) [Example 30],9.22 nM,78.9 nM,,
CC(C)(C)C(NC(=O)c1nn(Cc2ccccc2)c2cc(Br)ccc12)C(N)=O (centres unmarked) [Example 33],0.24 nM,0.92 nM,,
CC(C)(C)C(NC(=O)c1nn(Cc2ccccc2)c2ccc(-c3ncco3)cc12)C(N)=O (centres unmarked) [Example 35],,,35.3 nM,271 nM
COC(=O)[C@@H](NC(=O)c1nn(Cc2ccccc2)c2ccccc12)C(C)(C)C [Example 38],0.14 nM,2.42 nM,,
COc1cccc(CNC(=O)c2nn(Cc3ccccc3)c3ccccc23)c1 [Example 43],27.1 nM,101 nM,,
CC(C)(C)[C@H](NC(=O)c1nn(Cc2ccccc2)c2cc(-c3cccnc3)ccc12)C(N)=O [Example 45],,,8.79 nM,21.4 nM
CC(C)(C)[C@H](NC(=O)c1nn(Cc2ccc(C#N)cc2)c2ccccc12)C(=O)NC1CC1 [Example 65],3.85 nM,90 nM,,
CC(C)(C)[C@H](NC(=O)c1nn(Cc2ccc(C#N)cc2)c2ccccc12)C(=O)NCCCO [Example 67],46.5 nM,827 nM,,

SMILES,Ki (human CB1 receptor [1]; CB1 Ki),EC50 (human CB1 receptor [2]; [3]),Ki (human CB1 receptor [1]; read-out: CB1 Ki),EC50 (human CB1 receptor [2]; [4])
Cc1cc(CNC(=O)c2nn(Cc3ccc(C#N)cc3)c3ccccc23)c(C)o1 [Example 68],4.61 nM,90.1 nM,,
CC(C)(C)[C@H](NC(=O)c1nn(Cc2ccc(C#N)cc2)c2ccccc12)C(=O)NCCO [Example 69],18.8 nM,183 nM,,
CC(C)(C)[C@H](NC(=O)c1nn(Cc2ccc(C#N)cc2)c2ccccc12)c1nnc(N)o1 [Example 71],,,8.85 nM,314 nM
CC(C)(C)[C@H](NC(=O)c1nn(Cc2ccccc2)c2ccccc12)C(=O)NC[C@H](O)CO [Example 73],22.9 nM,217 nM,,
CC(C)(C)C(NC(=O)c1nn(Cc2ccc(F)cc2)c2ccccc12)C(=O)NCC(O)CO (centres unmarked) [Example 77],5.39 nM,48.1 nM,,
CC(C)(C)C(NC(=O)c1nn(Cc2ccc(F)cc2)c2ccccc12)c1nnc(NC(=O)C2CC2)o1 (centres unmarked) [Example 78],,,0.59 nM,2.88 nM
CC(C)(C)[C@H](NC(=O)c1nn(Cc2ccc(F)cc2)c2ccc(Cl)cc12)C(=O)NCCC(N)=O [Example 477],28.3 nM,,,
Cc1cc(O)nc(NCCNC(=O)[C@@H](NC(=O)c2nn(Cc3ccc(F)cc3)c3ccccc23)C(C)(C)C)n1 [Example 481],,,52.6 nM,
Cc1cc(O)nc(CCNC(=O)[C@@H](NC(=O)c2nn(Cc3ccc(F)cc3)c3ccccc23)C(C)(C)C)n1 [Example 483],,,84 nM,
CCOC(=O)c1ccc(Cn2nc(C(=O)N[C@H](C(=O)NCCO)C(C)(C)C)c3ccccc32)c(F)c1 [Example 484],,,> 400 nM,
CC(C)(C)[C@H](NC(=O)c1nn(Cc2ccc(C#N)cc2)c2ccccc12)C(=O)NC[C@H]1C[C@@H]1CO [Example 485],152 nM,,,
CC(C)(C)[C@H](NC(=O)c1nn(Cc2ccc(C#N)cc2)c2c(F)cccc12)C(=O)NC[C@H]1C[C@@H]1CO [Example 486],43.9 nM,,,
CC(C)(C)[C@H](NC(=O)c1nn(Cc2ccc(C#N)cc2)c2cc(F)ccc12)C(=O)NC[C@H]1C[C@@H]1CO [Example 487],109 nM,,,
CC(C)(C)[C@H](NC(=O)c1nn(Cc2ccc(C#N)cc2)c2ccccc12)C(=O)NC[C@H]1C[C@H]1CO [Example 489],127 nM,,,
CC(C)(C)[C@H](NC(=O)c1nn(Cc2ccc(C#N)cc2)c2cc(F)ccc12)C(=O)NC[C@H]1C[C@H]1CO [Example 491],88.5 nM,,,
CC(C)(C)[C@H](NC(=O)c1nn(Cc2ccc(F)cc2)c2ccccc12)C(=O)NCC(=O)NCC(=O)O [Example 495],,,130 nM,
CC(C)(C)[C@H](NC(=O)c1nn(Cc2ccc(F)cc2)c2ccccc12)C(=O)NC[C@H](O)CN1CCCC1 [Example 503],,,321 nM,
CCN(CC)C[C@@H](O)CNC(=O)[C@@H](NC(=O)c1nn(Cc2ccc(F)cc2)c2ccccc12)C(C)(C)C [Example 505],,,301 nM,
CN(CCO)C[C@@H](O)CNC(=O)[C@@H](NC(=O)c1nn(Cc2ccc(F)cc2)c2ccccc12)C(C)(C)C [Example 507],,,212 nM,
Cn1ccc(NC(=O)[C@@H](NC(=O)c2nn(Cc3ccc(F)cc3)c3ccccc23)C(C)(C)C)n1 [Example 515],37.5 nM,,,
CC(C)(C)[C@H](NC(=O)c1nn(Cc2ccc(F)cc2)c2ccccc12)C(=O)NCC(=O)NCCCO [Example 521],,,> 400 nM,
CC(C)(C)[C@H](NC(=O)c1nn(Cc2ccc(F)cc2)c2ccccc12)C(=O)NCC(=O)NC[C@H](O)CO [Example 522],,,> 400 nM,
